# Source: US20240383904A1, “HETEROCYCLIC COMPOUNDS” (Hoffmann-La Roche Inc., priority 2021, published 2024)
# Target: T1, MAGL (Homo sapiens, UniProt Q99685)
# T1 sequence (Q99685 1-303): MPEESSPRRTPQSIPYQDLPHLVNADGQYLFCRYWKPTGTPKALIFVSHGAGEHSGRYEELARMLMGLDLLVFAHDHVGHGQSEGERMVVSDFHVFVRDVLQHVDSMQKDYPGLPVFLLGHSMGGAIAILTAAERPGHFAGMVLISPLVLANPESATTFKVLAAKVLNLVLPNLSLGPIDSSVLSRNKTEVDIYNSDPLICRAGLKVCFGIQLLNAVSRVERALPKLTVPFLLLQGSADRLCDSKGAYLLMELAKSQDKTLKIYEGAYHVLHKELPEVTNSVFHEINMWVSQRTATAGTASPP
# Assay: 2-AG assay: MAGL inhibitory activity by hydrolysis of 2-arachidonoylglycerol to arachidonic acid, followed by mass spectrometry
# Assay type: biochemical
# Details: 15 min preincubation, 30 min reaction at RT, 8 μM 2-arachidonoylglycerol
row,IC50 [nM],SMILES
1,4.95,"N=[S@](=O)(c1ccc(CC2CC3(C2)CN(C(=O)N2CC4(COCC(=O)N4)C2)C3)cc1)C(F)(F)F [Example 285, 2-[6-[[4-(trifluoromethylsulfoni-midoyl)phenyl]methyl]-2-azaspiro[3.3]heptane-2-carbonyl]-8-oxa-2,5-diazaspiro[3.5]nonan-6-one]"
2,2.89,"N=[S@@](=O)(c1ccc(CC2CC3(C2)CN(C(=O)N2CC4(CCC(=O)N4)C2)C3)cc1)C(F)(F)F [Example 286, 2-[6-[[4-(trifluoromethylsulfoni-midoyl)phenyl]methyl]-2-azaspiro[3.3]heptane-2-carbonyl]-2,5-diazaspiro[3.4]octan-6-one]"
3,8.91,"N=[S@@](=O)(c1ccc(CC2CC3(C2)CN(C(=O)N2CC4(COCC(=O)N4)C2)C3)cc1)C(F)(F)F [Example 288, 2-[6-[[4-(trifluoromethylsulfoni-midoyl)phenyl]methyl]-2-azaspiro[3.3]heptane-2-carbonyl]-8-oxa-2,5-diazaspiro[3.5]nonan-6-one]"
4,0.44,"N=[S@@](=O)(c1cccc(CC2CC3(C2)CN(C(=O)N2CC4(CCC(=O)N4)C2)C3)c1)C(F)(F)F [Example 289, 2-[6-[[3-(trifluoromethylsulfoni-midoyl)phenyl]methyl]-2-azaspiro[3.3]heptane-2-carbonyl]-2,5-diazaspiro[3.4]octan-6-one]"
5,45.6,"N=[S@@](=O)(c1cccc(CC2CC3(C2)CN(C(=O)N2CC4(CCCC(=O)N4)C2)C3)c1)C(F)(F)F [Example 290, 2-[6-[[3-(trifluoromethylsulfoni-midoyl)phenyl]methyl]-2-azaspiro[3.3]heptane-2-carbonyl]-2,5-diazaspiro[3.5]nonan-6-one]"
6,1.27,"N=[S@@](=O)(c1cccc(CC2CC3(C2)CN(C(=O)N2CC4(COCC(=O)N4)C2)C3)c1)C(F)(F)F [Example 291, 2-[6-[[3-(trifluoromethylsulfoni-midoyl)phenyl]methyl]-2-azaspiro[3.3]heptane-2-carbonyl]-8-oxa-2,5-diazaspiro[3.5]nonan-6-one]"
7,1.29,"N=[S@](=O)(c1cccc(CC2CC3(C2)CN(C(=O)N2CC4(CCC(=O)N4)C2)C3)c1)C(F)(F)F [Example 292, 2-[6-[[3-(trifluoromethylsulfoni-midoyl)phenyl]methyl]-2-azaspiro[3.3]heptane-2-carbonyl]-2,5-diazaspiro[3.4]octan-6-one]"
8,69.4,"N=[S@](=O)(c1cccc(CC2CC3(C2)CN(C(=O)N2CC4(CCCC(=O)N4)C2)C3)c1)C(F)(F)F [Example 293, 2-[6-[[3-(trifluoromethylsulfoni-midoyl)phenyl]methyl]-2-azaspiro[3.3]heptane-2-carbonyl]-2,5-diazaspiro[3.5]nonan-6-one]"
9,2.15,"N=[S@](=O)(c1cccc(CC2CC3(C2)CN(C(=O)N2CC4(COCC(=O)N4)C2)C3)c1)C(F)(F)F [Example 294, 2-[6-[[3-(trifluoromethylsulfoni-midoyl)phenyl]methyl]-2-azaspiro[3.3]heptane-2-carbonyl]-8-oxa-2,5-diazaspiro[3.5]nonan-6-one]"
10,0.07,"O=C1CCC2(CN(C(=O)N3CC4(CC(Cc5ccc(S(=O)(=O)C(F)(F)F)cc5)C4)C3)C2)N1 [Example 295, 2-[6-[[4-(trifluoromethylsulfonyl)phenyl]methy]-2-azaspiro[3.3]heptane-2-carbonyl]-2,5-diazaspiro[3.4]octan-6-one]"
11,0.15,"O=C1COCC2(CN(C(=O)N3CC4(CC(Cc5ccc(S(=O)(=O)C(F)(F)F)cc5)C4)C3)C2)N1 [Example 296, 2-[6-[[4-(trifluoromethylsulfonyl)phenyl]methyl]-2-azaspiro[3.3]heptane-2-carbonyl]-8-oxa-2,5-diazaspiro[3.5]nonan-6-one]"
12,75.9,"N=S(=O)(c1cccc(OC(F)(F)F)c1)C1CC2(C1)CN(C(=O)N1CC3(CCC(=O)N3)C1)C2 (stereo not drawn) [Example 297, 2-[6-[[3-(trifluoromethoxy)phenyl]sulfonimidoyl]-2-azaspiro[3.3]heptane-2-carbonyl]-2,5-diazaspiro[3.4]octan-6-one]"
13,0.83,"N=S(=O)(c1cc(F)cc(CC2CC3(C2)CN(C(=O)N2CC4(CCC(=O)N4)C2)C3)c1)C(F)(F)F (stereo not drawn) [Example 298, 2-[6-[[3-fluoro-5-(trifluoromethylsulfoni-midoyl)phenyl]methyl]-2-azaspiro[3.3]heptane-2-carbonyl]-2,5-diazaspiro[3.4]octan-6-one]"
14,63.5,"O=C1CCC2(CN(C(=O)N3CC4(CC(Oc5cncc(C(F)(F)F)c5)C4)C3)C2)N1 [Example 299, 2-[6-[[5-(trifluoromethyl)-3-pyridyl]oxy]-2-azaspiro[3.3]heptane-2-carbonyl]-2,5-diazaspiro[3.4]octan-6-one]"
15,47.4,"O=C1CCC2(CN(C(=O)N3CC4(CC(Cn5ncc(C(F)(F)F)n5)C4)C3)C2)N1 [Example 300, 2-[6-[[4-(trifluoromethyl)triazol-2-yl]methyl]-2-azaspiro[3.3]heptane-2-carbonyl]-2,5-diazaspiro[3.4]octan-6-one]"
16,15.4,"N#Cc1ccc(OC2CC3(C2)CN(C(=O)N2CC4(CCC(=O)N4)C2)C3)cc1C(F)(F)F [Example 301, 4-[[2-(6-oxo-2,5-diazaspiro[3.4]octane-2-carbonyl)-2-azaspiro[3.3]heptan-6-yl]oxy]-2-(trifluoromethyl)benzoni-trile]"
17,68.8,"N#Cc1ccc(OC2CC3(C2)CN(C(=O)N2CC4(COCC(=O)N4)C2)C3)cc1C(F)(F)F [Example 302, 4-[[2-(6-oxo-8-oxa-2,5-diazaspiro[3.5]nonane-2-carbonyl)-2-azaspiro[3.3]heptan-6-yl]oxy]-2-(trifluoromethyl)benzoni-trile]"
18,35.7,"O=C1CCC2(CN(C(=O)N3CC4(CC(Oc5ccc(Cl)cn5)C4)C3)C2)N1 [Example 303, 2-[6-[(5-chloro-2-pyridyl)oxy]-2-azaspiro[3.3]heptane-2-carbonyl]-2,5-diazaspiro[3.4]octan-6-one]"
19,3.73,"Cn1cc(C(F)(F)F)c(CC2CC3(C2)CN(C(=O)N2CC4(CCC(=O)N4)C2)C3)n1 [Example 304, 2-[6-[[1-methyl-4-(trifluoromethyl)pyrazol-3-yl]methyl]-2-azaspiro[3.3]heptane-2-carbonyl]-2,5-diazaspiro[3.4]octan-6-one]"
20,20.9,"Cc1nn(C)c(Cl)c1CN1CC2(C1)CN(C(=O)N1CC3(COC(=O)N3)C1)C2 [Example 305, 2-[6-[(5-chloro-1,3-dimethyl-pyrazol-4-yl)methyl]-2,6-diazaspiro[3.3]heptane-2-carbonyl]-7-oxa-2,5-diazaspiro[3.4]octan-6-one]"
21,287,"O=C1CCC2(CN(C(=O)N3CC4(CN(Cc5nc(C(F)(F)F)cs5)C4)C3)C2)N1 [Example 306, 2-[6-[[4-(trifluoromethyl)thiazol-2-yl]methyl]-2,6-diazaspiro[3.3]heptane-2-carbonyl]-2,5-diazaspiro[3.4]octan-6-one]"
22,48.1,"N#Cc1cc(OC2CC3(C2)CN(C(=O)N2CC4(CCC(=O)N4)C2)C3)ccc1C(F)(F)F [Example 307, 5-[[2-(6-oxo-2,5-diazaspiro[3.4]octane-2-carbonyl)-2-azaspiro[3.3]heptan-6-yl]oxy]-2-(trifluoromethyl)benzoni-trile]"
23,49,"O=C1CCC2(CN(C(=O)N3CC4(CC(Oc5nc(C(F)(F)F)cs5)C4)C3)C2)N1 [Example 308, 2-[6-[4-(trifluoromethyl)thiazol-2-yl]oxy-2-azaspiro[3.3]heptane-2-carbonyl]-2,5-diazaspiro[3.4]octan-6-one]"
24,94.9,"O=C1CCC2(CN(C(=O)N3CC4(CC(Oc5ccc(F)cn5)C4)C3)C2)N1 [Example 309, 2-[6-[(5-fluoro-2-pyridyl)oxy]-2-azaspiro[3.3]heptane-2-carbonyl]-2,5-diazaspiro[3.4]octan-6-one]"
25,76.9,"Cn1cc(OC2CC3(C2)CN(C(=O)N2CC4(CCC(=O)N4)C2)C3)c(C(F)(F)F)n1 [Example 310, 2-[6-[1-methyl-3-(trifluoromethyl)pyrazol-4-yl]oxy-2-azaspiro[3.3]heptane-2-carbonyl]-2,5-diazaspiro[3.4]octan-6-one]"
26,4.08,"O=C1CCC2(CN(C(=O)N3CC4(CC(Cn5cc(C6(C(F)(F)F)CC6)cn5)C4)C3)C2)N1 [Example 311, 2-[6-[[4-[1-(trifluoromethyl)cyclopro-pyl]pyrazol-1-yl]methyl]-2-azaspiro[3.3]heptane-2-carbonyl]-2,5-diazaspiro[3.4]octan-6-one]"
27,54.9,"O=C1CCC2(CN(C(=O)N3CC4(CC(Cc5cc(C(F)(F)F)ncn5)C4)C3)C2)N1 [Example 312, 2-[6-[[6-(trifluoromethyl)pyrimi-din-4-yl]methyl]-2-azaspiro[3.3]heptane-2-carbonyl]-2,5-diazaspiro[3.4]octan-6-one]"
28,27.8,"O=C1CCC2(CN(C(=O)N3CC4(CC(Oc5ncc(F)cc5Cl)C4)C3)C2)N1 [Example 313, 2-[6-[(3-chloro-5-fluoro-2-pyridyl)oxy]-2-azaspiro[3.3]heptane-2-carbonyl]-2,5-diazaspiro[3.4]octan-6-one]"
29,8.62,"O=C1CCC2(CN(C(=O)N3CC4(CC(Cc5ccnc(C(F)(F)F)n5)C4)C3)C2)N1 [Example 314, 2-[6-[[2-(trifluoromethyl)pyrimi-din-4-yl]methyl]-2-azaspiro[3.3]heptane-2-carbonyl]-2,5-diazaspiro[3.4]octan-6-one]"
30,206,"O=C1CCC2(CN(C(=O)N3CC4(CN(Cc5cnc(C(F)(F)F)s5)C4)C3)C2)N1 [Example 315, 2-[6-[[2-(trifluoromethyl)thiazol-5-yl]methyl]-2,6-diazaspiro[3.3]heptane-2-carbonyl]-2,5-diazaspiro[3.4]octan-6-one]"
